Experimental findings from ChEMBL document CHEMBL1201862, “PubChem BioAssay data set” (2004) are described below.

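1) Cells in 96-well plates. 2) Compound, 48 h, 5 concentrations. 3) Linear interpolation between surrounding doses. 4) Unreached endpoint = highest concentration. At the GI50, growth is halved.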 Calls of active or inactive are those of the source. Cut-off read from the data, not from the text of the source: active = GI50 up to about 1.1 µM and inactive = higher. Bounds are passed on as bounds.

Common to all, as to test: NCI tumour cell line growth inhibition, 48 h
Test [1] has as its system HL-60.
Test [2] relates to K562.
Test [3] concerns NCI-H23.
For test [4], the system named is SNB-19.
The subject of test [5] is KM12.
Test [6] relates to A549.
The test system of test [7] is SF-268.
Test [8] relates to SK-MEL-5.
The subject of test [9] is UACC-257.
Test [10] concerns SNB-75.
Test [11] concerns RPMI-8226.
The test system of test [12] is SN12C.
Test [13] deals with MOLT-4.
The subject of test [14] is SF-295.
Test [15] has as its system SW-620.
Test [16] concerns SK-OV-3.
In test [17] the test system is UO-31.
For test [18], the system named is NCI-H460.
Test [19] has as its system EKVX.
In test [20] the test system is HT-29.

For the compound `O=C(CC(C(=O)c1cccs1)c1ccc2c(c1)OCO2)c1ccc(Br)cc1` (configuration not stated), the GI50 in test [1] was > 100 µM (inactive); in [2], > 100 µM (inactive); in test [3], > 100 µM (inactive); in test [4], 8.51 µM (inactive); in test [5], > 100 µM (inactive); in [6] it was > 100 µM (inactive). The GI50 in test [7], in test [8], in [9], in test [10], in test [11] and in test [12] was > 100 µM (inactive) throughout. Further, the GI50 in test [13] is > 100 µM (inactive); in [14] it was > 100 µM (inactive); in [15], > 100 µM (inactive); in [16], > 100 µM (inactive); in [17], 14.9 µM (inactive); in test [18] it was > 100 µM (inactive). Moreover, the GI50 in test [19] was > 100 µM (inactive).

Consider `O=C(/C=C/c1cccc2ccccc12)c1ccccc1Cl`, for which the GI50 is 2.65 µM (inactive) in test [1]; 5.57 µM (inactive) in test [2]; 14.3 µM (inactive) in test [3]; 14.1 µM (inactive) in test [4]; 8.63 µM (inactive) in test [5]; 25.8 µM (inactive) in test [6]. Besides, the GI50 in test [7] is 18.4 µM (inactive); in test [8] it was 16.9 µM (inactive); in test [9] it was 17.4 µM (inactive); in test [10] it was 16.7 µM (inactive); in test [11], 5.43 µM (inactive); in test [12], > 100 µM (inactive). Moreover, the GI50 was 3.85 µM (inactive) in [13]; 5.58 µM (inactive) in [15]; 21.4 µM (inactive) in test [16]; 14.8 µM (inactive) in test [17]; 13.6 µM (inactive) in test [20]; 13.5 µM (inactive) in [18]. Moreover, in [19], the GI50 is 15.1 µM (inactive).

Turning to `O=C1C=CC2=[N+]([O-])C(c3ccccc3)(c3ccccc3)/C(=N\c3ccccc3)C2=C1`, the GI50 in [1] was 0.349 µM (active); in test [2], 2.1 µM (inactive); in test [3] it was 2.38 µM (inactive); in [4], 17.2 µM (inactive); in [6], 15.4 µM (inactive); in [7] it was 3.28 µM (inactive). Besides, the GI50 was 14.2 µM (inactive) in test [8]; 2.38 µM (inactive) in [9]; 3.22 µM (inactive) in test [10]; 2.96 µM (inactive) in [11]; 2.22 µM (inactive) in test [12]; 1.27 µM (inactive) in test [13]. The GI50 was 14.5 µM (inactive) in test [14]; 1.91 µM (inactive) in test [15]; 17.8 µM (inactive) in [16]; 2.21 µM (inactive) in test [17]; 2.41 µM (inactive) in [20]; 11 µM (inactive) in test [18]. Besides, the GI50 in test [19] was 4.14 µM (inactive).

Consider `O=C(O)Cc1cccc2c1Oc1ccccc1S2`, for which the GI50 in [1], in test [2], in test [3], in test [4], in [5] and in test [6] was > 100 µM (inactive) each time. Further, the GI50 in [7], in test [8], in [9], in test [10], in test [11] and in [12] was > 100 µM (inactive) each time. The GI50 in test [13], in [14], in test [15], in [16], in test [17] and in [20] was > 100 µM (inactive) in each case. The GI50 in test [18] and in [19] was > 100 µM (inactive) throughout.
